This is an account of results in patent publication US20240366540A1, “MITOFUSIN INHIBITORS AND USES THEREOF” (Albert Einstein College of Medicine, priority 2021, published 2024).

In one test the test system is THP-1 cells. In words: Cell death with BV6 in THP-1 cells. It is filed as cell-based. The method, then:
(§1) Cell death assay. Cells (2×10^5 cells/well) were seeded in a 6-well plate and treated with the indicated drugs for 6 hours. Cells were dissociated using Accutase (Thermo Fisher; Cat. #00-4555-56) in order to avoid accidental exposure of phosphatidylserine on the outer plasma membrane. Cell death was evaluated with Dead Cell Apoptosis Kit with Annexin V Alexa Fluor™ 488 & Propidium Iodide (Thermo Fisher; Cat. #V13241) according to manufacturer's protocol. Data was acquired by BD LSRII flow cytometer system using BD FACSDiva software. Data was analyzed by FlowJo (BD).

Another test relates to H508 cells. In words: Cell viability, colon cancer cells. It is filed as cell-based. Particulars: H508, 72 hr, Cell titer Glo. The method, then: (§2) Cell titer Glo was used to measure viability. Cells were treated with MFI8 for 72 hr (n=3, mean±SD).
(§3) Cell viability assay. Cells (5×10^3 cells/well) were seeded in a 96-well white plate and treated with serial dilutions of MASM7 or MFI8. Cell viability was assayed after 72 hrs by addition of CellTiter-Glo reagent according to the manufacturer's protocol (Promega). Luminescence was measured using a F200 PRO microplate reader (TECAN). Viability assays were performed in at least triplicate and the data normalized to vehicle-treated control wells. Dilutions of MASM7 or MFI8 were performed using a TECAN D300e Digital Dispenser from 10 mM stocks.
A general note: ATP-based viability assays read luminescence as a measure of living cells.

The subject of the next test is HT29 cells. In words: Cell viability, colon cancer cells. Particulars: HT29, 72 hr, Cell titer Glo. It is filed as cell-based. The method, then:
as §2, §3

Test [1] deals with MOLM13 cells. In words: Caspase 3/7 activation in MOLM13 cells with AMG-176. It is filed as cell-based. Particulars: increasing concentrations of AMG-176 and MFI8. On the procedure:
(§4) Caspase-3/7 activation assay. Cells (5×10^3 cells/well) were seeded in a 96-well white plate and treated with MASM7, MFI8. Caspase 3/7 activation was measured after 6 hr by addition of the Caspase-Glo 3/7 reagent according to the manufacturer's protocol (Promega). Luminescence was detected by a F200 PRO microplate reader (TECAN). Caspase assays were performed in at least triplicate and the data normalized to vehicle-treated control wells. Dilutions of MASM7 or MFI8 were performed using a TECAN D300e Digital Dispenser from 10 mM stocks.

The next test concerns U2OS cells. Nature of the test: Caspase-3/7 activation assay in U2OS cells. It is filed as cell-based. On the procedure: as §4
Test [2] deals with MOLM13 cells. In words: Cell viability, leukemia cells. It is filed as cell-based. Particulars: MOLM13, 72 hr, Cell titer Glo. The method, then: as §2, §3
The next test has as its system MV-411 cells. Nature of the test: Cell viability, leukemia cells. It is filed as cell-based. Particulars: MV-411, 72 hr, Cell titer Glo. The method, then:
as §2, §3

For the next test, the system named is MFN1 and MFN2. Nature of the test: MFN1 and MFN2 gene expression and protein levels. It is filed as cell-based. The method, then:
Western blot. Western blots were performed from whole cell lysates (WCL) prepared in lysis buffer containing 50 mM Tris-HCl pH 7.5, 1% Triton X-100, 150 mM NaCl, 5 mM MgCl2, 1 mM EGTA and 10% glycerol in the presence of protease inhibitor cocktail (Roche).
Analysis of mitochondrial biogenesis-related genes by q-PCR. Total RNA was extracted by using RNeasy Mini Kit (Qiagen) followed by cDNA synthesis using the SuperScript IV VILO Master Mix (Thermo Scientific), both performed according to the manufacturer's protocol. q-PCR was performed using the following primers: […]
For the q-PCR reaction, Power SYBR Green master mix (Thermo Scientific) was used according to the manufacturer's instructions. Briefly, each reaction consisted of 10 ng cDNA, 5 μL Power SYBR Green master mix, 200 nM primers (forward and reverse), and RNase-free water up to 10 μL. q-PCR was performed on the ViiA 7 Real-Time PCR System (Thermo Scientific) with the following cycle parameter: 95° C. for 10 min, 40 cycles of 95° C. for 15 s, and 60° C. for 1 min. q-PCR products were analyzed by melting curves for unspecific products or primer dimer formation. Rpl39 was used as housekeeping gene and 2^−ΔΔCT method was applied to determine the relative mRNAs expression.

In test [3] the test system is MEFs. Nature of the test: Mitochondrial depolarization assay (TMRE membrane potential). It is filed as cell-based, mouse. The method, then: Mitochondrial depolarization assay (mtΔΨ). MEFs (10^4 cells/well) were seeded in a 96-well black plate and treated with MASM7 or MFI8 for 6 hrs. Following treatments, cells were stained with 250 nM TMRE (Sigma; Cat. 87917) for 20 min at 37° C. Subsequently, cells were washed with thrice with PBS. Fluorescence intensity was detected by a M100 microplate reader (TECAN, Ex: 540 nm/Em: 579 nm).

The subject of test [4] is Calu-6 cells. Nature of the test: Cell viability, lung cancer cells. Particulars: Calu-6, 72 hr, Cell titer Glo. It is filed as cell-based. The method, then:
as §2, §3

A further test has as its system H2405 cells. Nature of the test: Cell viability, lung cancer cells. It is filed as cell-based. Particulars: H2405, 72 hr, Cell titer Glo. The method, then: as §2, §3
The subject of test [5] is Calu-6 cells. Nature of the test: Cell death (Annexin V) in Calu-6 cells. It is filed as cell-based. Particulars: 20 μM, indicated timepoints. The method, then: Calu-6 cells were treated with MFI8 (20 μM). Cell death was monitored at the indicated timepoints using Annexin V as a readout. Data represent mean (n=3).
as §1

Test [6] deals with mitochondrial biogenesis markers. In words: Mitochondrial biogenesis markers by q-PCR. It is filed as cell-based. On the procedure:
Analysis of mitochondrial biogenesis-related genes by q-PCR. Total RNA was extracted by using RNeasy Mini Kit (Qiagen) followed by cDNA synthesis using the SuperScript IV VILO Master Mix (Thermo Scientific), both performed according to the manufacturer's protocol. q-PCR was performed using the following primers: For the q-PCR reaction, Power SYBR Green master mix (Thermo Scientific) was used according to the manufacturer's instructions. […] Rpl39 was used as housekeeping gene and 2^−ΔΔCT method was applied to determine the relative mRNAs expression.

For another test, the system named is cells. Nature of the test: Cell death assay (Annexin V / propidium iodide). It is filed as cell-based. Particulars: for sensitization to BV6-induced cell death: in combination with BV6. The method, then: as §1
For test [7], the system named is MEFs. In words: Mitochondrial respiration in cellulo (OCR, Seahorse XF24). It is filed as cell-based, mouse. Particulars: WT MEFs; MASM7 1 μM or MFI8 20 μM, 6 hrs. The method, then: Mitochondrial respiration in cellulo. Mitochondrial oxygen consumption rates (OCR) were assessed using a XF24 Analyzer (Seahorse Biosciences, Billerica MA, USA). In brief, 3×10^4 MEFs were cultured in a XF24 cell culture microplate containing DMEM supplemented with 10% fetal bovine serum. […] OCR was normalized to cell number or total protein content per well for each condition tested.

Consider `Cc1cccc(NC(C)c2cc(Cl)ccc2O)c1C` (stereo not shown) [MFI8, 4-Chloro-2-(1-((2,3-dimethylphenyl)amino)ethyl)phenol], for which the “cell death in combination with BV6” value with THP-1 cells was “synergistically induce cell death”. Also, the viability result in the test on H508 cells, with HT29 cells, in the test with MOLM13 cells [2], in the test on MV-411 cells, in the test with Calu-6 cells [4] and in the test on H2405 cells was “concentration responsively reduces viability” in each case. In the test on MOLM13 cells [1], the “caspase 3/7 activation in response to AMG-176” value is on record as “sensitizes cells to caspase activation”. The caspase-3/7 activation entry in the test on U2OS cells was “induced caspase-3/7 activation”. Also, the “MFN1 and MFN2 gene expression and corresponding protein levels” value with MFN1 and MFN2 is on record as “neither MASM7 nor MFI8 altered”. Further, the “mitochondrial membrane potential (TMRE)” value was “not when reconstituted with L692A MFN2” in the test on MEFs [3] (MFN1/MFN2 DKO MEFs reconstituted with L692A MFN2); “significantly decreased mitochondrial membrane potential” in the test on MEFs [3] (MFN1/MFN2 DKO MEFs reconstituted with WT MFN2); “concentration responsively decreased mitochondrial membrane potential” in the test with MEFs [3] (WT MEFs, 6 hrs). In the test on Calu-6 cells [5], the “apoptosis / cell death (Annexin V)” value is “induces apoptosis in Calu-6 cells”. In test [6], the “gene expression levels of mitochondrial biogenesis markers” value is listed as “no alteration”. For the same compound, the “percentage of dead cells” value with cells (compound alone, upon caspase 3/7 activation) is recorded as “did not increase the percentage of dead cells”. Besides, the “sensitization to BV6-induced cell death” value with cells is reported as “potentiated the capacity of BV6 to induce cell death”; in the test on cells (deletion of MFN1/2 and APAF) it was “abolished the capacity of MFI8 to sensitize cells to BV6 treatment”. The “respiration and mitochondrial ATP production (OCR)” value in the test on MEFs [7] is “reduced respiration and mitochondrial ATP production”.
